Measured values published in ChEMBL document CHEMBL1143406 (Antimicrob Agents Chemother, 2007).

Assays:
Assay type in all cases: ADME, organism-based
[1] = Tmax in HIV-negative human at 600 mg, po administered every 24 hrs coadministered with 300 mg of atazanavir every 12 hrs; conditions: in vivo
[2] = system: Homo sapiens; experiment: Terminal apparent distribution volume in HIV-negative human at 600 mg, po administered every 24 hrs coadministered with 400 mg of atazanavir every 12 hrs; conditions: in vivo
[3] = AUC (24 hrs) in HIV-negative human at 600 mg, po administered every 24 hrs coadministered with 400 mg of atazanavir every 12 hrs; set-up: time < 24 hr, dose 600 mg, route oral; conditions: plasma
[4] = Apparent oral clearance in HIV-negative human at 600 mg, po administered every 24 hrs coadministered with 300 mg of atazanavir every 12 hrs; conditions: in vivo
[5] = Cmax in HIV-negative human at 600 mg, po administered every 24 hrs coadministered with 300 mg of atazanavir every 12 hrs; set-up: dose 600 mg, route oral; conditions: in vivo
[6] = system: Homo sapiens; experiment: Terminal apparent distribution volume in HIV-negative human at 600 mg, po administered every 24 hrs coadministered with 300 mg of atazanavir every 12 hrs; conditions: in vivo
[7] = AUC (24 hrs) in HIV-negative human at 600 mg, po administered every 24 hrs coadministered with 300 mg of atazanavir every 12 hrs; set-up: dose 600 mg, time < 24 hr, route oral; conditions: plasma
[8] = Tmax in HIV-negative human at 600 mg, po administered every 24 hrs coadministered with 400 mg of atazanavir every 12 hrs; conditions: in vivo
[9] = Apparent oral clearance in HIV-negative human at 600 mg, po administered every 24 hrs coadministered with 400 mg of atazanavir every 12 hrs; conditions: in vivo
[10] = Cmax in HIV-negative human at 600 mg, po administered every 24 hrs coadministered with 400 mg of atazanavir every 12 hrs; set-up: dose 600 mg, route oral; conditions: in vivo

SMILES: CO[C@H]1/C=C/O[C@@]2(C)Oc3c(C)c(O)c4c(O)c(c(/C=N/N5CCN(C)CC5)c(O)c4c3C2=O)NC(=O)/C(C)=C\C=C\[C@H](C)[C@H](O)[C@@H](C)[C@@H](O)[C@@H](C)[C@H](OC(C)=O)[C@@H]1C [RIFAMPIN]
- Tmax [1]: 2.7 h
- Vbeta [2]: 33 L
- AUC at 24 h [3]: 41700 ng·h/mL
- CL/F [4]: 252 mL/min
- Cmax [5]: 9490 ng/mL
- Vbeta [6]: 32 L
- AUC at 24 h [7]: 45700 ng·h/mL
- Tmax [8]: 2.7 h
- CL/F [9]: 275 mL/min
- Cmax [10]: 10100 ng/mL
